Data from patent US9504685B2, “Method for treating a pulmonary hypertension condition” (Gilead Sciences, Inc., priority 2006, dated 2016).
Like-named read-outs stand apart in the source and are kept apart here.

Experiments:
p450 = settings: cited from earlier work
subjects with PAH [1] = settings: for Subjects who died: 12 weeks
Experimental: All adverse effects (AEs) reported during the course of the study were reported and summaries of all AEs were prepared showing frequencies and percentages of: • (a) subjects with at least 1 AE; • (b) subjects with possibly or probably drug-related AEs; • (c) subjects with at least 1 serious AE (SAE); • (d) subjects with an AE leading to study discontinuation; and • (e) subjects who died. […]
The safety population was defined as all randomized subjects who received at least 1 dose of study drug. Subjects were considered as belonging to a treatment group according to the highest actual treatment dose received. Any subject who received 10 mg ambrisentan on any day was included in the 10 mg group for safety analyses in the entire study. Any subject who received 5 mg ambrisentan on any day and never received 10 mg ambrisentan on any day was included in the 5 mg group for safety analyses in the entire study. Otherwise, any subject who received only placebo was included in the placebo group for safety analyses in the study.

subjects with PAH [2] = test: Example 1 (ARIES-2) Phase III trial, disposition, safety and tolerability; type: in vivo; settings: for Subjects who died: 12 weeks
Experimental: Change from Week 0 to Week 12 was determined.

[3] = male subjects, 10 mg once daily
[4] = male subjects, 2.5 mg once daily

## COC(c1ccccc1)(c1ccccc1)[C@H](Oc1nc(C)cc(C)n1)C(=O)O [ambrisentan]
p450
  drug interactions (p450 induction or inhibition): no p450 induction or inhibition
Subjects with PAH [1]; 5 mg once daily
  subjects who died during the study or within 30 days of the last dose: 1.5%
  Subjects who died: 1 (1.5) subjects (% of safety populati
Subjects with PAH [1]; 10 mg once daily
  subjects who died during the study or within 30 days of the last dose: 1.5%
  Subjects who died: 1 (1.5) subjects (% of safety populati
Subjects with PAH [1]; combined 5 mg and 10 mg groups
  Subjects who died: 2 (1.5) subjects (% of safety populati
Subjects with PAH [1]; in vivo
  effect on PT, INR or weekly warfarin-type anticoagulant dose: no effect
  male fertility hormones and serial semen samples: did not suggest that ambrisentan was associated with an adverse effect on male reproductive potential
  mean changes from baseline at Week 12 for serum ALT and AST: no notable mean changes
  subjects who developed elevated serum aminotransferase concentrations >3×ULN: None
Subjects with PAH [1]; male subjects, 5 mg once daily
  change from baseline in testosterone concentration at Week 12: -0.099 ± 3.48 nmol/L
Subjects with PAH [1]; [3]
  change from baseline in testosterone concentration at Week 12: -0.099 ± 3.48 nmol/L
  change over baseline in FSH concentration at Week 12: +1.83 IU/liter
Subjects with PAH [2]; 2.5 mg once daily
  subjects who died during the study or within 30 days of the last dose: 3.1%
  Subjects who died: 2 (3.1) subjects (% of safety populati
Subjects with PAH [2]; 5 mg once daily
  subjects who died during the 12-week study: No subjects
  Subjects who died: 0 (0.0) subjects (% of safety populati
Subjects with PAH [2]; combined 2.5 mg and 5 mg groups
  Subjects who died: 2 (1.6) subjects (% of safety populati
Subjects with PAH [2]; in vivo
  male fertility hormones and serial semen samples: did not suggest that ambrisentan was associated with an adverse effect on male reproductive potential
  mean changes from baseline at Week 12 for serum ALT and AST: no notable mean changes
  mean total bilirubin and mean alkaline phosphatase: notable decrease
  subjects who developed elevated serum aminotransferase concentrations >3.0×ULN: None
Subjects with PAH [2]; [4]
  change in testosterone concentration over the 12-week study: -0.09 ± 4.595 nmol/L
  change over baseline in FSH concentration at Week 12: +0.58 IU/liter
Subjects with PAH [2]; male subjects, 5 mg once daily
  change in testosterone concentration over the 12-week study: -2.61 ± 6.962 nmol/L
